± gives the expanded uncertainty stated by the source.
Assay: mn = molality of the nth substance listed, in mol/kg
Conditions: Liquid, Vibrating tube method

[Cl-].[Li+] [lithium chloride] + CCO
mass density [kg/m3]
Conditions	373.15 K	398.15 K
680 kPa, m1 = 0.3023	–	696.61 ± 0.43
740 kPa, m1 = 0.1049	–	688.68 ± 0.44
740 kPa, m1 = 2.022	–	758.72 ± 0.42
960 kPa, m1 = 1.222	–	731.58 ± 0.43
1010 kPa, m1 = 2.88	–	785.44 ± 0.42
1020 kPa, m1 = 0.5873	–	708.33 ± 0.43
4860 kPa, m1 = 1.222	–	737.73 ± 0.44
5010 kPa, m1 = 0.1049	–	695.99 ± 0.45
5030 kPa, m1 = 2.022	–	765.06 ± 0.43
5070 kPa, m1 = 0.3023	–	704.02 ± 0.45
5070 kPa, m1 = 2.88	–	790.37 ± 0.43
5740 kPa, m1 = 0.5873	–	716.08 ± 0.45
9680 kPa, m1 = 1.222	–	744.82 ± 0.46
10060 kPa, m1 = 0.3023	–	711.93 ± 0.47
10060 kPa, m1 = 0.5873	–	722.74 ± 0.47
10140 kPa, m1 = 2.88	–	796.07 ± 0.44
10420 kPa, m1 = 2.022	–	772.34 ± 0.45
10450 kPa, m1 = 0.1049	–	704.75 ± 0.48
15060 kPa, m1 = 1.222	–	752.07 ± 0.48
15060 kPa, m1 = 2.022	–	778 ± 0.47
15090 kPa, m1 = 0.3023	–	719.36 ± 0.5
15280 kPa, m1 = 2.88	–	801.31 ± 0.46
15420 kPa, m1 = 0.1049	–	712.2 ± 0.5
15960 kPa, m1 = 0.5873	–	731.15 ± 0.49
20010 kPa, m1 = 2.88	–	805.83 ± 0.47
20090 kPa, m1 = 0.1049	–	718.73 ± 0.53
20140 kPa, m1 = 0.3023	–	726.27 ± 0.52
20350 kPa, m1 = 0.5873	–	736.9 ± 0.52
20470 kPa, m1 = 1.222	–	758.65 ± 0.5
20740 kPa, m1 = 2.022	–	784.18 ± 0.49
25230 kPa, m1 = 0.3023	–	732.68 ± 0.55
25320 kPa, m1 = 2.88	–	810.7 ± 0.49
25420 kPa, m1 = 0.5873	–	742.99 ± 0.54
25610 kPa, m1 = 2.022	–	788.8 ± 0.51
25620 kPa, m1 = 1.222	–	764.26 ± 0.53
25840 kPa, m1 = 0.1049	–	726.13 ± 0.56
30050 kPa, m1 = 0.5873	–	748.05 ± 0.57
30070 kPa, m1 = 0.3023	–	738.24 ± 0.58
30070 kPa, m1 = 2.88	–	814.57 ± 0.5
30090 kPa, m1 = 2.022	–	792.51 ± 0.52
30150 kPa, m1 = 0.1049	–	731.22 ± 0.59
30260 kPa, m1 = 0.1049	753.85 ± 0.56	–
30410 kPa, m1 = 1.222	789.12 ± 0.53	768.9 ± 0.55
34950 kPa, m1 = 0.5873	–	752.88 ± 0.59
34980 kPa, m1 = 2.88	–	818 ± 0.52
35160 kPa, m1 = 0.3023	764.94 ± 0.58	–
35240 kPa, m1 = 0.3023	–	743.62 ± 0.61
35410 kPa, m1 = 2.022	814.8 ± 0.52	–
35740 kPa, m1 = 2.88	836.3 ± 0.51	–
35810 kPa, m1 = 2.022	–	796.49 ± 0.55
35840 kPa, m1 = 0.1049	759.05 ± 0.59	–
35840 kPa, m1 = 1.222	793.28 ± 0.55	–
35860 kPa, m1 = 0.1049	–	737.37 ± 0.62
35950 kPa, m1 = 1.222	–	773.57 ± 0.57
35980 kPa, m1 = 0.5873	774.65 ± 0.57	–
39820 kPa, m1 = 1.222	796.01 ± 0.57	–
39860 kPa, m1 = 0.1049	–	741.26 ± 0.65
39910 kPa, m1 = 0.1049	762.54 ± 0.61	–
39920 kPa, m1 = 0.5873	–	757.22 ± 0.62
39940 kPa, m1 = 1.222	–	776.48 ± 0.59
39940 kPa, m1 = 2.022	–	798.83 ± 0.56
39960 kPa, m1 = 0.3023	768.9 ± 0.6	–
39970 kPa, m1 = 0.3023	–	748.04 ± 0.64
39970 kPa, m1 = 0.5873	777.73 ± 0.59	–
39970 kPa, m1 = 2.022	817.45 ± 0.54	–
39980 kPa, m1 = 2.88	839.22 ± 0.52	821.9 ± 0.54
